Results: patent US8106052B2, “Luminescence-based methods and probes for measuring cytochrome P450 activity” (Promega Corporation, priority 2002, dated 2012)

Key:
[1] = tested on: thermostable luciferase; assay: Stabilization of luminescent signal using luciferase inhibitors; settings: 100 micromolar inhibitor; CYP1A1 with Luciferin chloroethyl ether; read for 1 hour
Procedure: FIG. 17. Stabilization of luminescent signals using luciferase inhibitors. […] Luminescence was read immediately and at subsequent 5 minute intervals for 1 hour.
(AMBT) or 2-(4-aminophenyl)-6-methylbenzothiazole (APMBT), were evaluated to determine their effect on stabilizing a luminescent signal.
Luminescence was read immediately and at subsequent 5 minute intervals for 1 hour.

[2] = target: T1, CYP1A1 (Homo sapiens, UniProt P04798); assay: Two-step luminescent CYP450 inhibition assay; type: biochemical; design: purchased GenTest (Woburn, Mass.); host or cells: Sf9 insect cells; settings: substrate Luc CEE; 50 microliter reaction, 1 picomole CYP450; read-out: IC50 of known CYP450 substrate against CYP1A1/Luc CEE
T1 sequence (P04798 1-512): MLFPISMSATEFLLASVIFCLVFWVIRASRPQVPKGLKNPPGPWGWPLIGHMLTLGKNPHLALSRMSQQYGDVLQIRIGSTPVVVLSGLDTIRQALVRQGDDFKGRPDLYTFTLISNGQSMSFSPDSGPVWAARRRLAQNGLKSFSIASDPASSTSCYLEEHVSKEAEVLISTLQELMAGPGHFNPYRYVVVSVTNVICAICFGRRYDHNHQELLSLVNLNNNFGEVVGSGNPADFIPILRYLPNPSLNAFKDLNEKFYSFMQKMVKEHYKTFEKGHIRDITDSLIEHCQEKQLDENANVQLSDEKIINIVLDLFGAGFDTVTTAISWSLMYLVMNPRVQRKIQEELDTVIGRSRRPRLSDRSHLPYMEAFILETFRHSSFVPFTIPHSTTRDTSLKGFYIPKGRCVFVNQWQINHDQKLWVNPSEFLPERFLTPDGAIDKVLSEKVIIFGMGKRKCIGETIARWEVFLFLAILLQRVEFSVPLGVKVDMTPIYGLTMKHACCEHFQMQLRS
Procedure: After an initial incubation period at 37° C.
Luciferin derivatives as substrates for luminescent CYP450 assays would be useful as probes for detecting other CYP450 substrates. Because two distinct substrates for the same CYP450 isoform will likely compete for the active site, it is possible to characterize known substrates and to identify novel substrates by observing their capacity to inhibit the luminescent reactions with luciferin derivatives. […] The drugs inhibited the reactions in a dose-dependent manner, thus verifying the expectation that CYP450 substrates can be detected by these luminescent assays (see table below). IC50s were calculated by non-linear regression analysis with the program GraphPad PRISM™ (San Diego, Calif.). The reactions were performed as described in Example 2 except the first step (CYP450 reaction) was in a 50 microliter reaction volume with 1 picomole of CYP450. In the second step a 50 microliter luciferase reaction was added to give final concentrations of 50 micrograms/mL recombinant, mutant of firefly luciferase from Photuris pennsylvanica from Promega (17), 200 micromolar ATP, 0.1% tergitol (v/v), 4.0 mM MgSO4 and 100 mM Tricine pH 8.4. FIGS. 11(a)-(c) illustrate the actual inhibition curves.

[3] = target: T2, CYP2E1 (Homo sapiens, UniProt P05181); assay: Two-step CYP450/Renilla reaction, coelenterazine derivative evaluation; type: biochemical; settings: 60 min at 37° C.; 3 micromolar substrate
T2 construct: purchased GenTest (Woburn, Mass.); host or cells: Sf9 insect cells, baculovirus
T2 sequence (P05181 whole entry): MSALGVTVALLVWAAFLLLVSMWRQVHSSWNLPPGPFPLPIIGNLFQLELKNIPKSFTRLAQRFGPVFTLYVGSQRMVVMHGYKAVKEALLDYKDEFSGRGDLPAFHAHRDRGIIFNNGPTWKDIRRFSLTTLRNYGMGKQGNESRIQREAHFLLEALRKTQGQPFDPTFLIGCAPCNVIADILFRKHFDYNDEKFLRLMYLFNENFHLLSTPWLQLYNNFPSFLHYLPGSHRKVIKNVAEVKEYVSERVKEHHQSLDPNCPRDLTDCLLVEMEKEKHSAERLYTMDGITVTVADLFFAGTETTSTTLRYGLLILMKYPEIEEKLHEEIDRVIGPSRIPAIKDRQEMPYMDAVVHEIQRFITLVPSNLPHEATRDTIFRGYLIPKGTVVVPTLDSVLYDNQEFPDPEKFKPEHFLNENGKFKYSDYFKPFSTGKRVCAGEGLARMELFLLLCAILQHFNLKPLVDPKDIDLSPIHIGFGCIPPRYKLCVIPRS
Procedure: (§1) In this Example, P450 activity was determined using coelenterazine and coelenterazine derivatives, methoxy-coelenterazine HH and coelenterazine HH, in a two-step reaction system. In these assays, P450 acts on the coelenterazine or coelenterazine derivatives in one of two ways. […] An example of this type of coelenterazine derivative is methoxy-coelenterazine HH. […] In both types of assay it is possible to detect P450 activity either directly by a change in chemiluminescence or indirectly by a change in bioluminescence from a Renilla-type luciferase.
(§2) […]; 625 mM KCl; 0.125 mM EDTA pH 8.0; 0.25% Triton X-100; 0.125% Mazu; 1.25% Glycerol; 0.25 mg/mL gelatin to the P450 reactions. Renilla luciferase (1.2 ng/mL) (purchased from Chemicon) was added for detection of bioluminescence of P450 altered coelenterazine or coelenterazine derivatives.

[4] = target: T3, CYP1A2 (Homo sapiens, UniProt P05177); assay: as above; type: biochemical; settings: 60 min at 37° C.
T3 sequence (P05177 1-516): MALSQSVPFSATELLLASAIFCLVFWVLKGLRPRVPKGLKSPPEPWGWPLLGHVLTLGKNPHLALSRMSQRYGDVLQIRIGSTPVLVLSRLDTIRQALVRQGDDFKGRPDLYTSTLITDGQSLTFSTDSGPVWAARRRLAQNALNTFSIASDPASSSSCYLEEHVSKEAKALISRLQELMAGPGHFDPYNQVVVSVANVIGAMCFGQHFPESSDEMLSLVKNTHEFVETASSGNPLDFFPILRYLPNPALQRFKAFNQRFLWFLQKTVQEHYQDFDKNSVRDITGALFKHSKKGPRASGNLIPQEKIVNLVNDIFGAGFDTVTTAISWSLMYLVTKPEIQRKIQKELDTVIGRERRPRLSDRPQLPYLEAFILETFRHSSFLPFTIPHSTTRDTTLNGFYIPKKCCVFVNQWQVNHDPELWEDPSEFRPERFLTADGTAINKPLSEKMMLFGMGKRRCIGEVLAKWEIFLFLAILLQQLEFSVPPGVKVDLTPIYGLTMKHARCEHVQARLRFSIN
Procedure: as §1, §2

[5] = target: T4, CYP2C19 (Homo sapiens, UniProt P33261); assay: as above; type: biochemical; settings: 60 min at 37° C.; 10 micromolar substrate
T4 construct: purchased GenTest (Woburn, Mass.); host or cells: Sf9 insect cells, baculovirus
T4 sequence (P33261 whole entry): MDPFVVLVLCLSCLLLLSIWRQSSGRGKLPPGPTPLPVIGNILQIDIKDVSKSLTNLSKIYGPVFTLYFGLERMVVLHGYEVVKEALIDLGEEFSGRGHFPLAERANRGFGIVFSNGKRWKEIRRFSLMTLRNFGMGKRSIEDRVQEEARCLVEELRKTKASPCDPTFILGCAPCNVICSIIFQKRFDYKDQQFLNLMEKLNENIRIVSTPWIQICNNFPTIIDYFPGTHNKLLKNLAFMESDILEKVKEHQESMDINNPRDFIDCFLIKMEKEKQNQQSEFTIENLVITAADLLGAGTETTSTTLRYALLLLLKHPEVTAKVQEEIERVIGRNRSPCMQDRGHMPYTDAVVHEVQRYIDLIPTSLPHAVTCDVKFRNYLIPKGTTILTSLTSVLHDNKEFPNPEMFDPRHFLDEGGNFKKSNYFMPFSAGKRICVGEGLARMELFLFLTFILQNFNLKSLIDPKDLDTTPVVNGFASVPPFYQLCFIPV
Procedure: as §1, §2

[6] = target: T5, CYP2B6 (Homo sapiens, UniProt P20813); assay: as above; type: biochemical; settings: 60 min at 37° C.; 10 micromolar substrate
T5 construct: purchased GenTest (Woburn, Mass.); host or cells: Sf9 insect cells, baculovirus
T5 sequence (P20813 1-491): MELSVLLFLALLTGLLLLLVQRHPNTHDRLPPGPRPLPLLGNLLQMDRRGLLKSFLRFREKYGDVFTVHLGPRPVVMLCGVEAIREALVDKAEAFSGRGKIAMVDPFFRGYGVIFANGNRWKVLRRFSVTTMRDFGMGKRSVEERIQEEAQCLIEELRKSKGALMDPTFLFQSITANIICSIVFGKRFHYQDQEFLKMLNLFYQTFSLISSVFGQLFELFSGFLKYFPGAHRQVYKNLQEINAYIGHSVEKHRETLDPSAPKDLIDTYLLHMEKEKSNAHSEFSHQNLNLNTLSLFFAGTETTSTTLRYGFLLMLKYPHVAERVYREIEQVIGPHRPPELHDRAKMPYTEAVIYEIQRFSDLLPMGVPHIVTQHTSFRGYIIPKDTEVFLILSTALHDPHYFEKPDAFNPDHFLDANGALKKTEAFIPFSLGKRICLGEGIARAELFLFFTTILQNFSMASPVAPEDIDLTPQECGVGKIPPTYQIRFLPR
Procedure: as §1, §2

[7] = target: T1, CYP1A1; assay: as above; type: biochemical; design: purchased GenTest (Woburn, Mass.); host or cells: baculovirus-infected insect cells; settings: 60 min at 37° C.; 10 micromolar substrate
Procedure: as §1, §2

SMILES: Cc1ccc2nc(-c3ccc(N)cc3)sc2c1 [APMBT, 2-(4-aminophenyl)-6-methylbenzothiazole]
- Effect on luminescent signal in a luminescent CYP450 assay [1]: stabilizes the luminescent signal

SMILES: CCOc1ccc(NC(C)=O)cc1 [Phenacetin, phenacetin]
- IC50 [2]: 21 µM

SMILES: O=c1c(Cc2ccccc2)nc2c(Cc3ccccc3)[nH]c(-c3ccccc3)cn1-2 [coelenterazine HH, 2,8-Dibenzyl-6-phenyl-7H-imidazo[1,2-a]pyrazin-3-one]
- Change in chemiluminescence and bioluminescence after incubation with CYP2E1 [3]: significant reduction
- Change in chemiluminescence and bioluminescence after incubation with CYP1A2 ([4]; 3 micromolar substrate): significant reduction

SMILES: COc1c(Cc2ccccc2)nc2c(Cc3ccccc3)nc(-c3ccccc3)cn12 [methyl-coelenterazine HH, 2,8-Dibenzyl-3-methoxy-6-phenyl-imidazo[1,2-a]pyrazine]
- Increase in chemiluminescence and bioluminescence with CYP2C19 (+P450 RLU/-P450 RLU) [5]: 2-5 ×
- Increase in chemiluminescence and bioluminescence with CYP2B6 (+P450 RLU/-P450 RLU) [6]: 2-5 ×
- Increase in chemiluminescence and bioluminescence with CYP1A2 (+P450 RLU/-P450 RLU) ([4]; 10 micromolar substrate): 2-5 ×
- Change in chemiluminescence and bioluminescence after incubation with CYP1A1 [7]: large increase
